From patent US10364263B2, “Cyclic phosphates and cyclic phosphoramidates for the treatment of neurologic disorders” (Retrophin, Inc., priority 2015, dated 2019)

Assays:
[1] = Stability in mouse hepatocytes; format: in vitro ADME; conditions: Diastereoisomer A (upfield shift in 31P NMR), 5 μM, 1 million cells/ml, 37° C., mouse hepatocytes, read-out: t1/2, Mouse Hepatocytes, Diastereoisomer A (converted)
[2] = Stability in human hepatocytes; format: in vitro ADME; conditions: Diastereoisomer A (upfield shift in 31P NMR), 5 μM, 1 million cells/ml, 37° C., human hepatocytes, read-out: t1/2, Human Hepatocytes, Diastereoisomer A (converted)
[3] = Permeability in porcine brain endothelial cell blood-brain barrier model; format: in vitro ADME; conditions: pig (endothelial cells), co-cultured with rat astrocytes, pH 7.4, PBECs/As blood-brain barrier model, luminal to basal; Diastereoisomer A; read-out: Papp Diastereoisomer A
Excerpt: Compounds disclosed herein show the potential to reach mammalian brain by crossing the blood-brain barrier (BBB) from systemic circulation. […] The porcine brain endothelial cell permeability assay is an in vitro BBB model to be used for the prediction of central nervous system (CNS) drug permeability in vivo and for ranking or prioritization of compounds according to their permeability. This system can also be used for mechanistic studies and drug delivery strategies via receptor-mediated transport (transcytosis). The system is a two-dimensional co-culture, non-contact model of two types of primary cells: primary brain endothelial cells obtained from fresh porcine brains, and primary rat astrocytes, obtained from neonatal rats. This ensures barrier formation and functional expression of key transporters.
The endothelial cells were cultured on rat-tail collagen type I and human fibronectin coated Transwell polycarbonate inserts (surface area 0.7 cm^2; pore size 0.4 μm) and the inserts were placed in 24-well plates containing confluent rat astrocytes. This system allows for the formation of a differentiated BBB model suitable for compound permeability in 10 days.
On the day of the experiment, culture medium was removed and cells were pre-incubated for 30 min with HBSS containing 20 mM Hepes pH 7.4 and 0.1% BSA. Donor volume (apical) was 400 μl and receiver volume (basal) 900 μl. Compounds were diluted in assay medium (at the desired concentration) and added to the luminal side (to mimic blood to brain passage). Transport was measured usually after 60 min by detecting the amount of compound from the basal (brain side). The integrity of the cell layers was assessed by measuring the transendothelial electrical resistance (TEER) and by monitoring FITC-dextran (40 KDa) permeation. Inserts with TEER values […] were selected for permeability studies. As FITC-dextran cannot freely permeate lipophilic barriers, a high degree of FITC-dextran transport indicates poor integrity of the cell layer and wells with high FITC-dextran permeability were excluded. FITC-dextran was included as internal control in each insert used for permeability studies. Fluorescence was measured using a fluorimetric detector. Radioactivity was measured by scintillation counting. For LC-MS/MS analysis, aliquots (200 μl) from the basal compartment were diluted with an equal volume of 100% acetonitrile containing 0.1% formic acid, centrifuged to remove cell debris, and evaporated under N2. After reconstitution, samples were analyzed by LC-MS/MS. Mass balance was determined considering the amount of compound recovered in the donor and receiver chamber at the end of the assay relative to the amount added to the donor chamber at time 0.
Permeability was defined as the apparent permeability coefficient (Papp), which is a measure of the appearance rate of the compound in the receiver chamber, expressed in cm/s. Papp is calculated according the following equation: Papp[cm/sec]=Vd*ΔMr/A*Md*Δt, Equation 2: where
Vd=volume in the donor compartment in cm^3 or mL;
ΔMr=total amount of compound in the receiver compartment after t seconds;
Md=donor amount (added at time 0)
Δt=time measured in seconds
A=filter area in cm^2 (for 24 well plate, A=0.7 cm^2).
To correct for the contribution of filter and substrate, Papp was also determined for the cell-free system. Permeability of the endothelial cell layer was determined using the following equation: […], Equation 3: where
Ptotal=the P of the total system,
Pf=P for the cell-free filter, and
Pe=P for the endothelial cell layer alone. In this equation, the total resistance of the system towards passage of a substance is additively composed of two […] resistances: that of the cell monolayer and that of the filter.

[4] = physchem; conditions: buffer, phosphate buffered saline, 10 mM phosphate buffer pH 7.5, 37° C.
Description: To measure chemical stability in aqueous solution, the half-life (t1/2), or time needed for the concentration to decrease by half, was determined for select compounds in phosphate buffered saline solution. Compounds were dissolved in a solution containing 10 mM phosphate buffer (pH 7.5) and 5% of D2O to a final concentration of −1 mM. All spectra were obtained at 37° C. on a Bruker Avance 600 NMR spectrometer equipped with an inverse broad-band probe with z-gradients. Data were obtained every 15 min for a total time period of 4 h or longer, according to the observed stability. ^31P NMR was performed at 242.55 MHz, with gated decoupling of the protons. An observation frequency range of 14619.9 Hz and 32 K complex data points were used for acquisition. A pulse angle of 90° and a 4-sec pulse cycle were utilized. Thirty-two accumulations were obtained before Fourier transformation of the free induction decay. ^1H NMR spectra were acquired using the 1DNOESY experiment with water presaturation for better solvent suppression. An observation frequency range of 12019.23 Hz, a 10-sec pulse cycle, and 32 K complex data points were used for acquisition. Sixty-four scans were added prior to Fourier transformation. Integral data were obtained using the TopSpin software.
Stability was determined based on analysis of disappearance of the compounds as a function of incubation time. Quantification of test compounds was measured as a peak area relative to an internal standard. The elimination constant, k, was calculated by plotting mean disappearance values on a semi-logarithmic scale and fitting with a best fit linear regression. The half-life (t1/2) expressed in hours was derived using Equation 1: t1/2=ln2/(−k). Equation 1:

[5] = test system: PANK2 silenced human neuroblastoma IMR32 cells (PANK2−/−); assay: Coenzyme A assay in PANK2 silenced cells (LC-MS quantification of free CoA); format: cell-based; conditions: compound added twice (24 h + 24 h), relative to 0.1% DMSO controls
In short: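 Free intracellular CoA was measured by positive-mode LC-MS/MS of 20% TFA extracts, taking 2 μl per 10^6 cells as intracellular volume. Cells were IMR32 with stable lentiviral PANK2 knockdown, dosed twice 24 h apart (48 h total, 0.1% DMSO). Output is fold increase over vehicle.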

[6] = pH 7.5, t1/2 (h) Diastereoisomer A, Diastereoisomer A = upfield shift in the 31P NMR

Compound	half-life at 5 µM [1] [h]	half-life [2] [h]	Papp A→B at 60 min [3] [×10⁻⁶ cm/s]	half-life [4, 6] [h]	PANK2−/− CoA (Fold Increase): fold increase in Coenzyme A (CoA) levels relative to controls [5] [Fold Increase]	half-life ([4]; pH 7.5, t1/2 (h) Diastereoisomer B, Diastereoisomer B) [h]
COC(=O)CCNC(=O)[C@@H]1O[P@@](=O)(NCc2ccccc2)OCC1(C)C [Compound No. 115, Methyl 3-((2R,4R)-2-(benzylamino)-5,5-dimethyl-2-oxido-1,3,2-dioxaphosphinane-4-carboxamido)propanoate]	< 0.25	0.64	4.03	> 60	–	–
COC(=O)CCNC(=O)[C@@H]1OP(=O)(N[C@H]2CN[C@@H](C(=O)OC)C2)OCC1(C)C (stereo partly drawn) [compound 132, methyl (2R,4R)-4-(((4R)-4-((3-methoxy-3-oxopropyl)carbamoyl)-5,5-dimethyl-2-oxido-1,3,2-dioxaphosphinan-2-yl)amino) pyrrolidine-2-carboxylate]	0.91	2.39	–	4.8	1.88	3.6
